# Key:
# [1] = Stability in rat hepatocytes assessed as half life; assay type: ADME, cell-based, Hepatocyte
# [2] = Stability in mouse assessed as intrinsic clearance; assay type: ADME, cell-based, Hepatocyte; settings: hepatocytes
# [3] = Protein binding in mouse brain; assay type: ADME, tissue-based
# [4] = Stability in human hepatocytes assessed as half life; assay type: ADME, cell-based, Hepatocyte
# [5] = Plasma protein binding in human; assay type: ADME
# [6] = Stability in cynomolgus monkey hepatocytes assessed as half life; assay type: ADME, cell-based, Macaca fascicularis, Hepatocyte
# [7] = Volume of distribution at steady state in mouse at 10 mg/kg, po or 1 mg/kg, iv; assay type: ADME, organism-based; settings: in vivo
# [8] = Plasma protein binding in rat; assay type: ADME
# [9] = Stability in human assessed as intrinsic clearance; assay type: ADME, cell-based, Hepatocyte; settings: hepatocytes
# [10] = Stability in cynomolgus monkey assessed as intrinsic clearance; assay type: ADME, cell-based, Macaca fascicularis, Hepatocyte; settings: hepatocytes
# [11] = Cmax in mouse at 10 mg/kg, po or 1 mg/kg, iv; assay type: ADME, organism-based; set-up: dose 10 mg/kg, route po; settings: in vivo
# [12] = Efflux ratio of apparent permeability in MDCK-MDR1 cells; assay type: ADME, cell-based, Canis lupus familiaris; settings: dog
# [13] = Clearance in mouse at 10 mg/kg, po or 1 mg/kg, iv; assay type: ADME, organism-based; settings: in vivo
# [14] = Plasma protein binding in cynomolgus monkey; assay type: ADME, cell-free, Macaca fascicularis
# [15] = Plasma protein binding in mouse; assay type: ADME, cell-free
# [16] = Half life in mouse at 1 mg/kg, IV; assay type: ADME, organism-based; settings: in vivo
# [17] = Apparent permeability across apical to basolateral side in MDCK-MDR1 cells; assay type: ADME, cell-based, Canis lupus familiaris; settings: dog
# [18] = Bioavailability in mouse at 10 mg/kg, po or 1 mg/kg, iv; assay type: ADME, organism-based; settings: in vivo
# [19] = Stability in dog assessed as intrinsic clearance; assay type: ADME, cell-based, Canis lupus familiaris, Hepatocyte; settings: hepatocytes
# [20] = Unbound brain-to-plasma concentration ratio in mouse measured after 8 hrs; assay type: ADME, cell-free; settings: read-out: K(p,uu,brain)
# [21] = Stability in dog assessed as half life; assay type: ADME, cell-based, Canis lupus familiaris, Hepatocyte; settings: hepatocytes
# [22] = Stability in mouse hepatocytes assessed as half life; assay type: ADME, cell-based, Hepatocyte
# [23] = Effect on TRPML1 knockout HEK293 cells; assay type: functional, cell-based, Homo sapiens
# [24] = Stability in rat assessed as intrinsic clearance; assay type: ADME, cell-based, Hepatocyte; settings: hepatocytes
# [25] = Half life in mouse at 10 mg/kg, PO; assay type: ADME, organism-based; settings: in vivo
Structure (SMILES),half-life [1] [min],clearance [2] [mL/min/kg],"fu,brain [3] [%]",half-life [4] [min],fu [5] [%],half-life [6] [min],Vdss [7] [L/kg],fu [8] [%],clearance [9] [mL/min/kg],clearance [10] [mL/min/kg],Cmax [11] [ng/mL],efflux ratio [12],CL [13] [mL/min/kg],fu [14] [%],fu [15] [%],half-life [16] [min],Papp A→B [17] [×10⁻⁶ cm/s],bioavailability [18] [%],clearance [19] [mL/min/kg],EC50 [23] [µM],also measured
Clc1cccc(N2CCN(C3c4ccccc4CCCCn4nnnc43)CC2)c1 (stereo not drawn),,,,,,,,,,,,,,,,,,,,> 48.8,
Clc1cccc(N2CCN(C3c4ccccc4CCCCCn4nnnc43)CC2)c1 (stereo not drawn),,,,,,,,,,,,,,,,,,,,> 48.8,
Clc1cccc(N2CCN(C3c4ccccc4/C=C\CCCn4nnnc43)CC2)c1 (stereo not drawn),,,,,,,,,,,,,,,,,,,,> 48.8,
CC(C)n1nnnc1[C@@H](c1ccccc1F)N1CCN(c2cccc(Cl)c2)CC1,4.97,170,0.3,16.9,0.6,39.1,9.01,0.4,104,69.1,36.2,0.4,103,0.7,0.5,131,9.9,12.4,83.7,> 48.8,Kp uu at 8 h [20]: 0.77; half-life [21]: 57 min; half-life [22]: 48 min; half-life [25]: 104 min; clearance [24]: 652 mL/min/kg

# The next lines start with results.
half-life [1] [min],clearance [2] [mL/min/kg],"fu,brain [3] [%]",half-life [4] [min],fu [5] [%],half-life [6] [min],Vdss [7] [L/kg],fu [8] [%],clearance [9] [mL/min/kg],clearance [10] [mL/min/kg],Cmax [11] [ng/mL],efflux ratio [12],CL [13] [mL/min/kg],fu [14] [%],fu [15] [%],half-life [16] [min],Papp A→B [17] [×10⁻⁶ cm/s],bioavailability [18] [%],clearance [19] [mL/min/kg],EC50 [23] [µM],Structure (SMILES),also measured
9.78,209,0.3,37,0.4,14.2,9.27,0.8,47.6,190,8.96,0.6,109,1,1,115,10.7,3.45,103,> 48.8,CC(C)n1nnnc1[C@H](c1ccccc1F)N1CCN(c2cccc(Cl)c2)CC1,Kp uu at 8 h [20]: 0.55; half-life [21]: 46.3 min; half-life [22]: 39.1 min; clearance [24]: 332 mL/min/kg
,,,,,,,,,,,,,,,,,,,1,CN(C)S(=O)(=O)c1ccc(S(=O)(=O)Nc2cccc(Cl)c2N2CCCCC2)cc1,

# Source: ChEMBL document CHEMBL5356999, “Discovery and characterization of novel TRPML1 agonists” (Bioorg Med Chem Lett, 2024)
